Among the data in PubChem BioAssay AID248 (DTP/NCI, 2004) are T/C values, retold here.

Where “and” joins values, the source holds several entries; their conditions need not be identical. Equal entries are not always repeated. Inconclusive results and toxic doses are left out.

This experiment concerns L1210 leukemia ip in BDF1 mice, survival T/C. In words: NCI In Vivo Anticancer Drug Screen. Data for tumor model L1210 Leukemia (intraperitoneal) in B6D2F1 (BDF1) mice. Conditions: endpoint: mean survival time, higher = longer survival. In a few lines: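 Transplanted-tumor mice were given test agent; controls received vehicle only. Survival readings from the two groups were divided (treated over control).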

Setting [1] is: dose: 100.0 mg/kg/injection, schedule: Q01DX001 (ip), vehicle: saline.
Setting [2] is: dose: 200.0 mg/kg/injection, schedule: Q01DX001 (ip), vehicle: carboxymethylcellulose (CMC).
Where [3] appears, read: dose: 200.0 mg/kg/injection, schedule: Q01DX001 (ip), vehicle: saline.
Setting [4] is: dose: 100.0 mg/kg/injection, schedule: Q01DX009 (ip), vehicle: Klucel (hydroxypropylcellulose) (HPC).
Where [5] appears, read: dose: 200.0 mg/kg/injection, schedule: Q01DX009 (ip), vehicle: Klucel (hydroxypropylcellulose) (HPC).
Setting [6] is: dose: 400.0 mg/kg/injection, schedule: Q01DX009 (ip), vehicle: Klucel (hydroxypropylcellulose) (HPC).
[7] abbreviates: dose: 100.0 mg/kg/injection, schedule: Q01DX001 (ip), vehicle: Klucel (hydroxypropylcellulose) (HPC).
The mark [8] stands for this setting: dose: 100.0 mg/kg/injection, schedule: Q04DX003 (ip), vehicle: Klucel (hydroxypropylcellulose) (HPC).
[9] abbreviates: dose: 200.0 mg/kg/injection, schedule: Q04DX003 (ip), vehicle: Klucel (hydroxypropylcellulose) (HPC).
[10] abbreviates: dose: 400.0 mg/kg/injection, schedule: Q04DX003 (ip), vehicle: Klucel (hydroxypropylcellulose) (HPC).

For `CNC(=O)OCCOC(=O)c1ccc(OC(=O)NC)cc1`, the T/C (dose: 25.0 mg/kg/injection, schedule: Q01DX001 (ip), vehicle: carboxymethylcellulose (CMC)) is 109 % of control; the T/C (dose: 25.0 mg/kg/injection, schedule: Q01DX001 (ip), vehicle: other) was 96 % of control; the T/C (dose: 25.0 mg/kg/injection, schedule: Q01DX001 (ip), vehicle: saline) is 95 % of control; the T/C (dose: 45.0 mg/kg/injection, schedule: Q01DX001 (ip), vehicle: saline) was 91 % of control; the T/C (dose: 50.0 mg/kg/injection, schedule: Q01DX001 (ip), vehicle: carboxymethylcellulose (CMC)) is 93 % of control; the T/C (dose: 50.0 mg/kg/injection, schedule: Q01DX001 (ip), vehicle: other) is 100 % of control. In addition, the T/C reads like this: (dose: 50.0 mg/kg/injection, schedule: Q01DX001 (ip), vehicle: saline) 96 % of control; (dose: 67.0 mg/kg/injection, schedule: Q01DX001 (ip), vehicle: saline) 100 % of control; (dose: 100.0 mg/kg/injection, schedule: Q01DX001 (ip), vehicle: carboxymethylcellulose (CMC)) 103 % of control and 92 % of control; (dose: 100.0 mg/kg/injection, schedule: Q01DX001 (ip), vehicle: other) 94 % of control; under setting [1], 95 % of control and 101 % of control and 202 % of control; (dose: 150.0 mg/kg/injection, schedule: Q01DX001 (ip), vehicle: saline) 95 % of control. The T/C is 97 % of control and 101 % of control under setting [2]; 96 % of control (dose: 200.0 mg/kg/injection, schedule: Q01DX001 (ip), vehicle: other); 88 % of control and 90 % of control under setting [3]; 97 % of control (dose: 400.0 mg/kg/injection, schedule: Q01DX001 (ip), vehicle: carboxymethylcellulose (CMC)); 93 % of control and 90 % of control (dose: 400.0 mg/kg/injection, schedule: Q01DX001 (ip), vehicle: saline).
For `CCCCNc1nnnn1CCCC`, the T/C by setting is: (dose: 100.0 mg/kg/injection, schedule: Q04DX003 (ip), vehicle: acetone) 98 % of control; (dose: 200.0 mg/kg/injection, schedule: Q04DX003 (ip), vehicle: acetone) 96 % of control.
As to `O=C(O)c1ccc(NC(=O)c2ccc(C(=O)Nc3ccc(C(=O)O)cc3)cc2)cc1`, the T/C is 101 % of control (dose: 15.0 mg/kg/injection, schedule: Q01DX Z (ip), vehicle: methylcellulose (MC)); 98 % of control (dose: 60.0 mg/kg/injection, schedule: Q01DX Z (ip), vehicle: methylcellulose (MC)); 95 % of control (dose: 120.0 mg/kg/injection, schedule: Q01DX Z (ip), vehicle: methylcellulose (MC)).
In the case of `C/C=C/C=N/NC(=O)c1ccccc1O`, the T/C is, setting by setting: under setting [4], 102 % of control; under setting [5], 105 % of control; under setting [6], 94 % of control.
For `Nc1ccc(C(=O)N/N=C/c2ccc(N(CCBr)CCBr)cc2)cc1`, the T/C (dose: 12.5 mg/kg/injection, schedule: Q01DX Z (ip), vehicle: carboxymethylcellulose (CMC)) was 124 % of control; the T/C under setting [1] is 98 % of control; the T/C under setting [3] was 108 % of control.
`Cc1c(C#N)c2n(c1C)CCN2`: the T/C is 105 % of control (dose: 25.0 mg/kg/injection, schedule: Q01DX009 (ip), vehicle: Klucel (hydroxypropylcellulose) (HPC)); 97 % of control (dose: 50.0 mg/kg/injection, schedule: Q01DX009 (ip), vehicle: Klucel (hydroxypropylcellulose) (HPC)); 91 % of control under setting [7]; 94 % of control under setting [4].
`CN(C)CC/C=C1/c2ccccc2COc2ccccc21`: the T/C is, setting by setting: (dose: 6.12 mg/kg/injection, schedule: Q01DX001 (ip), vehicle: water) 111 % of control; (dose: 6.25 mg/kg/injection, schedule: Q01DX009 (ip), vehicle: saline) 103 % of control; (dose: 12.5 mg/kg/injection, schedule: Q01DX001 (ip), vehicle: water) 113 % of control; (dose: 12.5 mg/kg/injection, schedule: Q01DX009 (ip), vehicle: saline) 107 % of control; (dose: 25.0 mg/kg/injection, schedule: Q01DX001 (ip), vehicle: water) 103 % of control; (dose: 25.0 mg/kg/injection, schedule: Q01DX009 (ip), vehicle: saline) 101 % of control. Moreover, the T/C (dose: 25.0 mg/kg/injection, schedule: Q04DX003 (ip), vehicle: saline) is 109 % of control; the T/C (dose: 50.0 mg/kg/injection, schedule: Q01DX009 (ip), vehicle: saline) was 113 % of control; the T/C (dose: 50.0 mg/kg/injection, schedule: Q04DX003 (ip), vehicle: saline) was 101 % of control; the T/C (dose: 100.0 mg/kg/injection, schedule: Q04DX003 (ip), vehicle: saline) was 93 % of control.
As for `Nc1nc(=S)c2ncn(C3OC(CO)CC3O)c2[nH]1` (centres undefined), the T/C runs as follows: (dose: 10.0 mg/kg/injection, schedule: Q01DX009 (ip), vehicle: other) 160 % of control; (dose: 88.8 mg/kg/injection, schedule: Q01DX001 (ip), vehicle: carboxymethylcellulose (CMC)) 162 % of control; under setting [2], 189 % of control.
On to `NC(=S)N/N=C/c1ccc[nH]1`, for which the T/C runs as follows: (dose: 100.0 mg/kg/injection, schedule: Q01DX001 (ip), vehicle: saline with Tween-80) 93 % of control; (dose: 200.0 mg/kg/injection, schedule: Q01DX001 (ip), vehicle: saline with Tween-80) 98 % of control.
On to `C/C(=N\N=C(/C)c1ccc(Cl)cc1)c1ccc(Cl)cc1`, for which the T/C is, setting by setting: under setting [7], 87 % of control; under setting [4], 89 % of control and 95 % of control; under setting [8], 89 % of control and 96 % of control; (dose: 200.0 mg/kg/injection, schedule: Q01DX001 (ip), vehicle: Klucel (hydroxypropylcellulose) (HPC)) 87 % of control; under setting [5], 86 % of control and 95 % of control; under setting [9], 89 % of control and 102 % of control. For the same compound, the T/C (dose: 400.0 mg/kg/injection, schedule: Q01DX001 (ip), vehicle: Klucel (hydroxypropylcellulose) (HPC)) was 97 % of control; the T/C under setting [6] was 94 % of control; the T/C under setting [10] was 98 % of control and 93 % of control.
`CCCC(C)C(=O)c1ccccc1` (centres undefined): the T/C by setting is: under setting [4], 96 % of control; under setting [8], 103 % of control; under setting [5], 93 % of control; under setting [9], 110 % of control; under setting [6], 96 % of control; under setting [10], 108 % of control.
For the compound `O=C1c2ccccc2C(=C/C=C/c2ccccc2)c2ccccc21`, the T/C was 99 % of control under setting [8], 89 % of control under setting [9] and 92 % of control under setting [10].
Regarding `Cc1nc2ncn(C3OC(CO)C(O)C3O)c2nc1C` (centres undefined), the T/C is, setting by setting: (dose: 100.0 mg/kg/injection, schedule: Q01DX005 (ip), vehicle: saline) 95 % of control; (dose: 200.0 mg/kg/injection, schedule: Q01DX005 (ip), vehicle: saline) 90 % of control.
`CCOC(=O)C(NC(=O)NC)C(=O)OCC`: the T/C is 98 % of control under setting [4]; 102 % of control under setting [8]; 93 % of control under setting [5]; 98 % of control under setting [9]; 102 % of control under setting [6]; 96 % of control under setting [10].
As to `[Cu+].[S-]c1ccsc1`, the T/C reads like this: (dose: 10.0 mg/kg/injection, schedule: Q01DX001 (ip), vehicle: carboxymethylcellulose (CMC)) 95 % of control; (dose: 20.0 mg/kg/injection, schedule: Q01DX001 (ip), vehicle: carboxymethylcellulose (CMC)) 93 % of control; (dose: 40.0 mg/kg/injection, schedule: Q01DX001 (ip), vehicle: carboxymethylcellulose (CMC)) 90 % of control; (dose: 80.0 mg/kg/injection, schedule: Q01DX001 (ip), vehicle: carboxymethylcellulose (CMC)) 106 % of control.
For the compound `NC(=Nc1ccc(N=C(N)N[N+](=O)[O-])cc1)N[N+](=O)[O-]`, the T/C (dose: 25.0 mg/kg/injection, schedule: Q04DX002 (ip), vehicle: Klucel (hydroxypropylcellulose) (HPC)) was 107 % of control; the T/C (dose: 50.0 mg/kg/injection, schedule: Q04DX002 (ip), vehicle: Klucel (hydroxypropylcellulose) (HPC)) is 96 % of control; the T/C (dose: 100.0 mg/kg/injection, schedule: Q04DX002 (ip), vehicle: Klucel (hydroxypropylcellulose) (HPC)) is 96 % of control.
With `CC(=NCc1ccccc1)Nc1ccc(NC(=O)c2ccc(C(=O)Nc3ccc(NC(C)=NCc4ccccc4)cc3)cc2)cc1`, the T/C runs as follows: (dose: 15.0 mg/kg/injection, schedule: Q01DX Z (ip), vehicle: carboxymethylcellulose (CMC)) 92 % of control; (dose: 30.0 mg/kg/injection, schedule: Q01DX Z (ip), vehicle: carboxymethylcellulose (CMC)) 103 % of control; (dose: 60.0 mg/kg/injection, schedule: Q01DX Z (ip), vehicle: carboxymethylcellulose (CMC)) 95 % of control; (dose: 120.0 mg/kg/injection, schedule: Q01DX Z (ip), vehicle: carboxymethylcellulose (CMC)) 97 % of control.
